Laboratory results published in ChEMBL document CHEMBL1150336, “Synthesis and antibacterial activity of novel pyrido[1,2,3-de][1,4]benzoxazine-6-carboxylic acid derivatives carrying the 3-cyclopropylaminomethyl-4-substituted-1-pyrrolidinyl group as a C-10 substituent” (J Med Chem, 2008).
≈ marks a conversion by molar mass, not a printed value.

Tests used:
Staphylococcus aureus [1] = experiment: Antibacterial activity against Staphylococcus aureus Smith after 18 hrs by agar dilution method; type: functional
[2] = Inhibition of Staphylococcus aureus MS5935 wild type topoisomerase 4-mediated decatenation activity
Enterococcus faecalis [3] = experiment: Antibacterial activity against quinoline-resistant Enterococcus faecalis No.15 isolate after 18 hrs by agar dilution method; type: functional
Escherichia coli = experiment: Antibacterial activity against Escherichia coli NIHJ JC2 after 18 hrs by agar dilution method; type: functional; settings: NIHJ JC2, 18 h
Mus musculus [4] = experiment: Toxicity in ICR mouse assessed as mortality administered as single dose at 100 mg/kg, iv after 7 days; type: organism-based; parameters: dose 100 mg/kg, route intravenous; settings: in vivo, 168 h
Pseudomonas aeruginosa = experiment: Antibacterial activity against Pseudomonas aeruginosa IID1210 after 18 hrs by agar dilution method; type: functional
Staphylococcus aureus [5] = experiment: Antibacterial activity against quinoline-resistant Staphylococcus aureus MS5935 containing single grlA and single gyrA mutation after 18 hrs by agar dilution method; type: functional
Mus musculus [6] = experiment: Phototoxicity in orally dosed ICR mouse assessed as skin erythema after 72 hrs; type: organism-based; settings: in vivo, po
Mus musculus [7] = experiment: Toxicity in intracerebroventricularly dosed ICR mouse assessed as induction of convulsion after 2 hrs in presence of fenbufen; type: organism-based; settings: in vivo, icv_or_intrathecal
Staphylococcus aureus [8] = experiment: Antibacterial activity against quinoline-resistant Staphylococcus aureus MS5935 containing double grlA and double gyrA mutation after 18 hrs by agar dilution method; type: functional
Enterococcus faecalis [9] = experiment: Antibacterial activity against vancomycin-resistant Enterococcus faecalis KU1856 after 18 hrs by agar dilution method; type: functional
Staphylococcus aureus [10] = experiment: Antibacterial activity against quinoline-resistant Staphylococcus aureus OITI MR1-1002 isolate after 18 hrs by agar dilution method; type: functional
Haemophilus influenzae = experiment: Antibacterial activity against Haemophilus influenzae IID983 after 18 hrs by agar dilution method; type: functional
Staphylococcus aureus [11] = experiment: Antibacterial activity against quinoline-resistant Staphylococcus aureus MS5935 containing double grlA and single gyrA mutation after 18 hrs by agar dilution method; type: functional
Enterococcus faecalis [12] = experiment: Antibacterial activity against vancomycin-resistant Enterococcus faecalis KU1866 after 18 hrs by agar dilution method; type: functional
DNA gyrase [13] = biological target: T1, DNA gyrase (Staphylococcus aureus, UniProt P0A0K8+P20831); experiment: Inhibition of Staphylococcus aureus MS5935 wild type DNA gyrase-mediated supercoiling activity; type: protein-complex assay
Streptococcus pneumoniae [14] = experiment: Antibacterial activity against quinoline-resistant Streptococcus pneumoniae no.55 isolate after 18 hrs by agar dilution method; type: functional
DNA gyrase [15] = biological target: T1, DNA gyrase; experiment: Inhibition of quinoline-resistant Staphylococcus aureus MS5935 DNA gyrase-mediated supercoiling activity; type: protein-complex assay
Streptococcus pneumoniae [16] = experiment: Antibacterial activity against Streptococcus pneumoniae type 3 infected in subcutaneously dosed ICR mouse administered 1 hr after bacterial challenge measured at 7 days post infection; type: functional; settings: sc
Enterococcus faecalis [17] = experiment: Antibacterial activity against Enterococcus faecalis IID682 after 18 hrs by agar dilution method; type: functional
Staphylococcus aureus [18] = experiment: Antibacterial activity against quinoline-resistant Staphylococcus aureus MS5935 containing single grlA mutation after 18 hrs by agar dilution method; type: functional
Mus musculus [19] = experiment: Toxicity in ICR mouse assessed as mortality administered as single dose at 200 mg/kg, iv after 7 days; type: organism-based; parameters: dose 200 mg/kg, route intravenous; settings: in vivo, 168 h
Staphylococcus aureus [20] = experiment: Antibacterial activity against quinoline-resistant wild type Staphylococcus aureus MS5935 after 18 hrs by agar dilution method; type: functional
Streptococcus pneumoniae [21] = experiment: Antibacterial activity against Streptococcus pneumoniae type 3 infected in po dosed ICR mouse administered 1 hr after bacterial challenge measured at 7 days post infection; type: functional
Klebsiella pneumoniae = experiment: Antibacterial activity against Klebsiella pneumoniae IID5209 after 18 hrs by agar dilution method; type: functional
Mus musculus [22] = experiment: Toxicity in intracerebroventricularly dosed ICR mouse assessed as induction of convulsion after 2 hrs in absence of fenbufen; type: organism-based; settings: in vivo, icv_or_intrathecal
Streptococcus pyogenes = experiment: Antibacterial activity against Streptococcus pyogenes IID692 after 18 hrs by agar dilution method; type: functional
Staphylococcus aureus [23] = experiment: Antibacterial activity against Staphylococcus aureus Smith infected in subcutaneously dosed ICR mouse administered 1 hr after bacterial challenge measured at 7 days post infection; type: functional; settings: sc
Staphylococcus aureus [24] = experiment: Antibacterial activity against Staphylococcus aureus Smith infected in po dosed ICR mouse administered 1 hr after bacterial challenge measured at 7 days post infection; type: functional
Streptococcus pneumoniae [25] = experiment: Antibacterial activity against Streptococcus pneumoniae type 3 after 18 hrs by agar dilution method; type: functional
[26] = Inhibition of quinoline-resistant Staphylococcus aureus MS5935 topoisomerase 4-mediated decatenation activity

T1 sequence (P0A0K8 whole entry): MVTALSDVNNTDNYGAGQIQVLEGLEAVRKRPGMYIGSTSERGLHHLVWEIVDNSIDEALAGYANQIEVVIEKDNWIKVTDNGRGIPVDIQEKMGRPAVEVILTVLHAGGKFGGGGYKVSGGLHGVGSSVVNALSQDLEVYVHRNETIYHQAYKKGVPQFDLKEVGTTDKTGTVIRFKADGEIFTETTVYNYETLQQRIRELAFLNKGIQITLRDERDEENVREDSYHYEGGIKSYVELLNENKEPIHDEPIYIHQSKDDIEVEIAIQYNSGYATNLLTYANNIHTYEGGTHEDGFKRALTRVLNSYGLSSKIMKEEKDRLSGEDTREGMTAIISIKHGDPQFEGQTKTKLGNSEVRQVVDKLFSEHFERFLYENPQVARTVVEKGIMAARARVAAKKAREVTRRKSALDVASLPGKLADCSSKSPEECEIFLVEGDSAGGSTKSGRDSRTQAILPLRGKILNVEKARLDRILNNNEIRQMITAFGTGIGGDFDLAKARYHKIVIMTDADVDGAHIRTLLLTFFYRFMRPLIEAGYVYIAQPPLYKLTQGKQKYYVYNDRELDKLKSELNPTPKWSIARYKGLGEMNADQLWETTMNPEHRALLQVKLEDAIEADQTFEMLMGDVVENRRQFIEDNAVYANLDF
T1 sequence (P20831 whole entry): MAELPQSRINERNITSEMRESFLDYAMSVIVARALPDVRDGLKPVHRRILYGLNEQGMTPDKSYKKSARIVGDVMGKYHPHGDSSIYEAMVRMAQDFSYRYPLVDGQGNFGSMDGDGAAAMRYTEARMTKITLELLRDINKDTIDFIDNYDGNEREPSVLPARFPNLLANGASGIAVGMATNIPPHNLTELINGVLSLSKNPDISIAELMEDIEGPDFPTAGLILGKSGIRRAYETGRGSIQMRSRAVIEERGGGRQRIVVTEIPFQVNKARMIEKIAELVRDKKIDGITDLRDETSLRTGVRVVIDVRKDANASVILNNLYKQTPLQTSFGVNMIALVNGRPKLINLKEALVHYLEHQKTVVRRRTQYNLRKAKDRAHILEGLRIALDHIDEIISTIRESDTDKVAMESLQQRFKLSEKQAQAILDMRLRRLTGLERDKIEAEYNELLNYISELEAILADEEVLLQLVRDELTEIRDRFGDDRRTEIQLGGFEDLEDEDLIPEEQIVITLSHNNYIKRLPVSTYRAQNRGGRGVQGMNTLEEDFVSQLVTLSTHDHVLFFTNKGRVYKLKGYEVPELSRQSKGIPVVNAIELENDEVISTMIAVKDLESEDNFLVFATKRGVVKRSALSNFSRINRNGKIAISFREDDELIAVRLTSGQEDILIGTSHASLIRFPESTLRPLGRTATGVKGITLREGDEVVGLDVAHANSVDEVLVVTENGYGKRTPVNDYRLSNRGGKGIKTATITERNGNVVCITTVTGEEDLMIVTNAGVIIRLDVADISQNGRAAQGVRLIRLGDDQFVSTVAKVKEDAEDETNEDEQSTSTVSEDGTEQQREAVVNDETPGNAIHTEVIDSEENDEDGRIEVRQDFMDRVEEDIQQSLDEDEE

Row | Compound | MIC (Staphylococcus aureus [1]) | MIC (Enterococcus faecalis [3]) | MIC (Escherichia coli) | Activity (Mus musculus [4]) | MIC (Pseudomonas aeruginosa) | Activity (Mus musculus [6]) | Activity (Mus musculus [7]) | MIC (Enterococcus faecalis [9]) | MIC (Staphylococcus aureus [10]) | MIC (Haemophilus influenzae) | MIC (Enterococcus faecalis [12]) | MIC (Streptococcus pneumoniae [14]) | MIC (Enterococcus faecalis [17]) | Activity (Mus musculus [19]) | MIC (Klebsiella pneumoniae) | Activity (Mus musculus [22]) | MIC (Streptococcus pyogenes) | MIC (Streptococcus pneumoniae [25]) | other results
1 | O=C(O)c1cn2c3c(c(N4C[C@H](CNC5CC5)[C@H](F)C4)c(F)cc3c1=O)OC[C@@H]2CF | 0.008 µg/mL (≈ 0.0183 µM) | 1 µg/mL (≈ 2.29 µM) | 0.008 µg/mL (≈ 0.0183 µM) | Non-toxic | 2 µg/mL (≈ 4.57 µM) | Non-toxic | > 40 µg | 0.5 µg/mL (≈ 1.14 µM) | 1 µg/mL (≈ 2.29 µM) | 0.004 µg/mL (≈ 0.00914 µM) | 0.5 µg/mL (≈ 1.14 µM) | 0.25 µg/mL (≈ 0.572 µM) | 0.063 µg/mL (≈ 0.144 µM) | Non-toxic | 0.031 µg/mL (≈ 0.0709 µM) | > 40 µg | 0.031 µg/mL (≈ 0.0709 µM) | 0.016 µg/mL (≈ 0.0366 µM) | IC50 [2]: 1.27 µg/mL (≈ 2.9 µM); MIC (Staphylococcus aureus [5]): 0.25 µg/mL (≈ 0.572 µM); MIC (Staphylococcus aureus [8]): 4 µg/mL (≈ 9.14 µM); MIC (Staphylococcus aureus [11]): 0.5 µg/mL (≈ 1.14 µM); IC50 (DNA gyrase [13]): 2.42 µM; IC50 (DNA gyrase [15]): 31.1 µM; ED50 (Streptococcus pneumoniae [16]): 2.9 mg/kg; MIC (Staphylococcus aureus [18]): 0.031 µg/mL (≈ 0.0709 µM); MIC (Staphylococcus aureus [20]): 0.016 µg/mL (≈ 0.0366 µM); ED50 (Streptococcus pneumoniae [21]): 4 mg/kg; ED50 (Staphylococcus aureus [23]): 0.12 mg/kg; ED50 (Staphylococcus aureus [24]): 0.5 mg/kg; IC50 [26]: 7 µg/mL (≈ 16 µM)
2 | CCNCC1CCN(c2c(F)cc3c(=O)c(C(=O)O)cn4c3c2OC[C@@H]4C)C1 (stereo partly specified) | 0.125 µg/mL (≈ 0.321 µM) | 32 µg/mL (≈ 82.2 µM) | 0.031 µg/mL (≈ 0.0796 µM) |  | 4 µg/mL (≈ 10.3 µM) |  |  | 16 µg/mL (≈ 41.1 µM) | 32 µg/mL (≈ 82.2 µM) |  | 16 µg/mL (≈ 41.1 µM) | 2 µg/mL (≈ 5.14 µM) | 0.25 µg/mL (≈ 0.642 µM) |  |  |  | 0.063 µg/mL (≈ 0.162 µM) | 0.063 µg/mL (≈ 0.162 µM) | 
3 | C[C@H]1CN(c2c(F)cc3c(=O)c(C(=O)O)cn4c3c2OC[C@@H]4CF)C[C@@H]1CNC1CC1 | 0.008 µg/mL (≈ 0.0185 µM) | 1 µg/mL (≈ 2.31 µM) | 0.016 µg/mL (≈ 0.0369 µM) | Non-toxic | 4 µg/mL (≈ 9.23 µM) | Non-toxic | 20 µg | 1 µg/mL (≈ 2.31 µM) | 2 µg/mL (≈ 4.61 µM) | 0.008 µg/mL (≈ 0.0185 µM) | 1 µg/mL (≈ 2.31 µM) | 0.5 µg/mL (≈ 1.15 µM) | 0.063 µg/mL (≈ 0.145 µM) |  | 0.125 µg/mL (≈ 0.288 µM) | 40 µg | 0.031 µg/mL (≈ 0.0715 µM) | 0.031 µg/mL (≈ 0.0715 µM) | 
4 | C[C@H]1COc2c(N3C[C@H](CNC4CC4)[C@H](F)C3)c(F)cc3c(=O)c(C(=O)O)cn1c23 | 0.008 µg/mL (≈ 0.0191 µM) | 0.5 µg/mL (≈ 1.19 µM) | 0.008 µg/mL (≈ 0.0191 µM) | Non-toxic | 2 µg/mL (≈ 4.77 µM) |  | > 40 µg | 0.5 µg/mL (≈ 1.19 µM) | 1 µg/mL (≈ 2.38 µM) | 0.004 µg/mL (≈ 0.00954 µM) | 0.5 µg/mL (≈ 1.19 µM) | 0.125 µg/mL (≈ 0.298 µM) | 0.063 µg/mL (≈ 0.15 µM) | Non-toxic | 0.031 µg/mL (≈ 0.0739 µM) | > 40 µg | 0.031 µg/mL (≈ 0.0739 µM) | 0.016 µg/mL (≈ 0.0381 µM) | 
5 | O=C(O)c1cn2c3c(c(N4CC[C@@H](CNC5CC5)C4)c(F)cc3c1=O)OC[C@@H]2CF | 0.008 µg/mL (≈ 0.0191 µM) | 1 µg/mL (≈ 2.38 µM) | 0.004 µg/mL (≈ 0.00954 µM) | Non-toxic | 2 µg/mL (≈ 4.77 µM) | Non-toxic | 10 µg | 0.5 µg/mL (≈ 1.19 µM) | 2 µg/mL (≈ 4.77 µM) | 0.004 µg/mL (≈ 0.00954 µM) | 0.5 µg/mL (≈ 1.19 µM) | 0.25 µg/mL (≈ 0.596 µM) | 0.063 µg/mL (≈ 0.15 µM) |  | 0.031 µg/mL (≈ 0.0739 µM) | 10 µg | 0.031 µg/mL (≈ 0.0739 µM) | 0.016 µg/mL (≈ 0.0381 µM) | 
6 | C[C@@H]1CN(c2c(F)cc3c(=O)c(C(=O)O)cn4c3c2OC[C@@H]4C)C[C@@H]1CNC1CC1 | 0.008 µg/mL (≈ 0.0193 µM) | 1 µg/mL (≈ 2.41 µM) | 0.016 µg/mL (≈ 0.0385 µM) | Toxic | 2 µg/mL (≈ 4.81 µM) |  | > 40 µg | 1 µg/mL (≈ 2.41 µM) | 0.5 µg/mL (≈ 1.2 µM) | 0.004 µg/mL (≈ 0.00963 µM) | 1 µg/mL (≈ 2.41 µM) | 0.125 µg/mL (≈ 0.301 µM) | 0.063 µg/mL (≈ 0.152 µM) |  | 0.063 µg/mL (≈ 0.152 µM) | > 40 µg | 0.016 µg/mL (≈ 0.0385 µM) | 0.016 µg/mL (≈ 0.0385 µM) | 
7 | C[C@H]1COc2c(N3CC[C@@H](CNC4CC4)C3)c(F)cc3c(=O)c(C(=O)O)cn1c23 | 0.008 µg/mL (≈ 0.0199 µM) | 1 µg/mL (≈ 2.49 µM) | 0.008 µg/mL (≈ 0.0199 µM) | Non-toxic | 2 µg/mL (≈ 4.98 µM) |  | 20 µg | 0.5 µg/mL (≈ 1.25 µM) | 2 µg/mL (≈ 4.98 µM) | 0.016 µg/mL (≈ 0.0399 µM) | 0.5 µg/mL (≈ 1.25 µM) | 0.25 µg/mL (≈ 0.623 µM) | 0.063 µg/mL (≈ 0.157 µM) | Toxic | 0.063 µg/mL (≈ 0.157 µM) | 20 µg | 0.016 µg/mL (≈ 0.0399 µM) | 0.016 µg/mL (≈ 0.0399 µM) | 
